The subject of series [1] is sex hormone binding globulin (SHBG). To be noted: cited from earlier work.
For series [2], the system named is plasma proteins such as sex hormone binding globulin and albumin. To be noted: cited from earlier work.
For another series, the target named is T1, transcortin (Homo sapiens, UniProt P08185).
T1 construct: charcoal extracted human serum; from tissue; host or cells: human serum, charcoal extracted (unpurified)
T1 sequence (P08185 23-405): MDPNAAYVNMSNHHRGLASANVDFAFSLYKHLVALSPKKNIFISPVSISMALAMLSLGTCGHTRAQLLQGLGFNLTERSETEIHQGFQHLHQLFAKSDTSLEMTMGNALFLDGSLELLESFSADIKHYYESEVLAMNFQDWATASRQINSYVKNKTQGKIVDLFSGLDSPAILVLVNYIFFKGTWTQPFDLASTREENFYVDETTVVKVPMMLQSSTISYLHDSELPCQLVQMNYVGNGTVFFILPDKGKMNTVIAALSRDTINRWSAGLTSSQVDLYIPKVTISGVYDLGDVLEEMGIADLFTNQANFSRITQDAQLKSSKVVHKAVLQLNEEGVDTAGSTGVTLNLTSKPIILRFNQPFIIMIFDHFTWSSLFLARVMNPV
Put plainly: Binding of cortisol tracers to serum proteins / transcortin with and without ANS (Example 4). To be noted: for % Tracer Bound to Serum Proteins (Corrected for Non-Specific Binding): charcoal extracted human serum. Here is the method: The protocol was as follows:
B. 200 μl buffer (containing either 0 or 600 μg of 8-anilinonaphthalene sulphonic acid (ANS) as a cortisol binding site blocking agent).
A mixture of A and B was incubated at 37° C. for one hour. […] The reaction tubes were mixed for one hour at room temperature. A 0.5 ml aliquot of the supernatant was then removed for counting.

The subject of series [3] is solid phase T4 specific antibody. The experiment in a line: Binding of labelled T4 derivatives to solid phase T4 antibody with and without thiomersal (Example 7). More on the design: species or system sheep. To be noted: 125I-labelled T4 derivative. On the procedure:
(§1) The dominant binding protein for T4 in serum is TBG, and the binding site for T4 on this protein may be blocked by adding an appropriate concentration of thiomersalate to the buffer.
(§2) The labelled T4 derivative was dissolved in 0.01 molar phosphate, pH 7.4 containing 0.9% sodium chloride and 0.1% gelatin to give a radioactive concentration of approximately 0.05 microcuries per milliliter. In the part of the experiment where the blocking agent was used, this buffer contained 1.8% thiomersal.
(§3) A solid phase T4 specific antibody was used that consisted of a pre-precipitated double antibody complex made by reacting sheep anti-T4 serum and donkey anti-rabbit gamma globulin serum in the abovementioned phosphate buffer. A concentration of this solid phase T4 antibody suspension was chosen that bound approximately 50% of ^125 I-T4 tracer in the presence of blocking agent under the experimental conditions used.
(§4) The binding of the labelled T4 derivatives was tested as follows:
(§5) 50 μl human serum (depleted of T4 by resin extraction)
(§6) 500 μl labelled T4 derivative (with or without blocking agent)
(§7) 1.0 ml solid phase T4 antibody suspension
(§8) Tubes were incubated for 2 hours at 37° C. and then centrifuged to settle the solid phase antibody. The supernatant solution was decanted and the radioactivity in the solid phase measured.

In series [4] the target is T2, TBG (Homo sapiens, UniProt P05543).
T2 sequence (P05543 21-415): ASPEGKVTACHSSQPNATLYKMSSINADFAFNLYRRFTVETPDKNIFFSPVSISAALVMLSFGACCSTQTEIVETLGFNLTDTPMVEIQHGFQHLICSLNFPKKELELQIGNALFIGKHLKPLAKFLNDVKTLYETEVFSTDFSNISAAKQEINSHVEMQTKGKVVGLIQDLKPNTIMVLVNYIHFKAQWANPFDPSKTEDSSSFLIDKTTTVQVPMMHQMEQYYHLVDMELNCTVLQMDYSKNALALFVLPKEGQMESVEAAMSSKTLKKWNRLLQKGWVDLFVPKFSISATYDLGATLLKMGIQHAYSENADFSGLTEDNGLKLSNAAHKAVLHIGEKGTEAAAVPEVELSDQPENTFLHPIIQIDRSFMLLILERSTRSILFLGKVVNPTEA
The experiment in a line: Binding of T4 derivatives to TBG, from antibody binding in presence and absence of blocking agent (Example 7). On the procedure: as §1, §2, §3, §4, §5, §6, §7, §8
The right-hand column of the above table sets out the ratio of the figures in the two other columns. As a rule of thumb, it may be said that this ratio should be at least 0.6, preferably at least 0.9 for the compound tested to be worth considering for use in the free T4 assay. It should be noted, however, that these figures are valid only for the free T4 assay and not necessarily for other free ligand assays.

For series [5], the system named is thyroxine binding globulin (TBG), thyroxine binding pre-albumin (TBPA) and albumin (Alb). To be noted: blood serum or plasma; cited from earlier work.
For series [6], the target named is T2, TBG. As to conditions: blood stream of human beings; cited from earlier work.
The test system of the next series is TBPA. As to conditions: blood stream of human beings; cited from earlier work.
In a further series the test system is Albumin. To be noted: blood stream of human beings; cited from earlier work.
Series [7] deals with T4-binding reagent (pre-precipitated double antibody complex, sheep anti-T4 serum). The experiment in a line: Free T4 assay using N-acetyl-thyroxine-dimethylamide, tracer bound to T4-binding reagent (Example 6). The source says:
The labelled derivative of the ligand was N-acetyl-thyroxine-dimethylamide,labelled by iodine-125 exchange using sodium iodide I^125 and chloromine-T. The specific activity was 1000 millicuries per milligram. The tracer concentration was 0.5 μCi/ml.
The specific binder was a pre-precipitated double antibody complex made from sheep anti-T4 serum and donkey anti-rabbit γ globulin serum. This reagent is referred to as the T4-binding reagent.
The buffer was 0.01 molar phosphate, pH 7.4, containing 9.0 g/l NaCl, 1.0 g/l NaN3 and 1.0 g/l gelatin. 50 micro-liters of a serum sample or standard was mixed with 500 micro-liters of the tracer solution and 1000 micro-liters of the T4-binding reagent. The mixture was incubated for 2 hours at 37° C., centrifuged, decanted, and drained. The radioactivity of the precipitate was measured.

The subject of a further series is sheep-anti-T4 serum. Put plainly: Free T4 assay, tracer N-acetyl-thyroxine-methyl ester bound to sheep anti-T4 serum (standard curve, Example 1). It counts as binding. The source says:
The labelled derivative of the ligand was N-acetyl-thyroxine-methyl ester, labelled by iodine-125 exchange using sodium iodide-I^125 and chloramine-T. The specific activity was 1500 millicuries per milligram. The tractor concentration was 90 picomolar.
The specific binder was a solution of sheep-anti-T4 serum raised against thyroxine methyl ester coupled to bovine serum albumin by carbodiimide. The final dilution was 1/60,000 in buffer.
The buffer contained 13.6 g/l KH2 PO4, 9.0 g/l NaCl, 0.07 g/l NaN3 and 1.0 g/l gelatin.
50 micro-liters of a serum sample was mixed with 200 micro-liters of the radioactive ligand derivative solution and 200 micro-liters of specific binder solution and the mixture incubated at room temperature for one hour. Then 1 milli-liter of polyethyleneglycol solution (20%) was added, and the reaction mixture centrifuged. The supernatant liquid was decanted and the radioactivity of the precipitate was measured.

The subject of a further series is transcortin and albumin. As to conditions: cited from earlier work.

Each structure is given as a SMILES string.

`C[C@]12CC[C@H]3[C@@H](CCC4=CC(=O)CC[C@@]43C)[C@@H]1CC[C@@H]2O` (stereo in doubt) [testosterone]: the “binding to SHBG (in words)” value in series [1] was “bind strongly”. Besides, in [2], the “proportion bound to plasma proteins” value was above 90%.
`C[C@]12CCC(=O)C=C1CC[C@@H]1[C@@H]2[C@@H](O)C[C@@]2(C)[C@H]1CC[C@]2(O)C(=O)CO` [Cortisol (H^3), Cortisol, reference compound]: the “binding to transcortin (in words)” value on transcortin is “binds strongly to transcortin”. The “% Tracer Bound to Serum Proteins (Corrected for Non-Specific Binding)” value at transcortin (ANS 0 μg/tube) came out at 28%; on transcortin (ANS 600 μg/tube), 3.5%. The “displacement from transcortin by ANS blocking agent (in words)” value at transcortin (high concentrations of ANS) was “displaced at high concentrations of the ANS blocking agent”.
Consider `COC(=O)[C@@H](Cc1cc(I)c(Oc2cc(I)c(O)c(I)c2)c(I)c1)NC(C)=O` [D-T4/A, N-Acetyl D-T4-methylester], for which the “% of T4 derivative bound to antibody” value in [3] (Thiomersal absent) came to 38%. Moreover, the “% of T4 derivative bound to antibody” value in series [3] (Thiomersal present) is listed as 38%. Moreover, at TBG [4], the “Ratio (% bound to antibody, thiomersal absent / present)” value was 1.00; the “binding to TBG (in words)” value is given as “appears to decrease this binding to TBG even further”; the “suitability of TBG binding reduction for free-T4 assay (in words)” value is “sufficiently reduced binding to TBG for use in the free-T4 assay”.
`N[C@@H](Cc1cc(I)c(Oc2cc(I)c(O)c(I)c2)c(I)c1)C(=O)O` [L-T4, thyroxine, reference compound]: in series [3] (Thiomersal absent), the “% of T4 derivative bound to antibody” value is 12%. Besides, the “% of T4 derivative bound to antibody” value in [3] (Thiomersal present) is 50%. In addition, on TBG [4], the “Ratio (% bound to antibody, thiomersal absent / present)” value came to 0.24 and the “binding to TBG (in words)” value is reported as “bound appreciably by TBG”. Also, the “bound to naturally occurring binding proteins” value in series [5] is reported as “approximately 99.98%”. The “percentage of T4 bound to TBG” value on TBG [6] was “approximately 70%”. Also, the “percentage of T4 bound to TBPA” value in the series with TBPA is reported as 20-25%. Besides, the “percentage of T4 bound to Albumin” value in the series with Albumin is recorded as 5-10%.
For `COC(=O)[C@H](Cc1cc(I)c(Oc2cc(I)c(O)c(I)c2)c(I)c1)NC(C)=O` [L-T4/A, N-Acetyl-L-T4-methylester], the “% of T4 derivative bound to antibody” value in series [3] (Thiomersal absent) is on record as 36%. For the same compound, the “% of T4 derivative bound to antibody” value in [3] (Thiomersal present) is 40%. Besides, on TBG [4], the “Ratio (% bound to antibody, thiomersal absent / present)” value is 0.90; the “binding to TBG (in words)” value is recorded as “appears to bind much less strongly to TBG than does L-T4”; the “suitability of TBG binding reduction for free-T4 assay (in words)” value is “sufficiently reduced binding to TBG for use in the free-T4 assay”.
For `CC(=O)N[C@@H](Cc1cc(I)c(Oc2cc(I)c(O)c(I)c2)c(I)c1)C(=O)O` [L-T4/F, N-Acetyl-L-T4] the same measures were 22%, 52%, 0.42, “bound to TBG to about the same extent as D-T4” and “not reduced enough for consideration as a T4 derivative for a free-T4 assay”.
As for `CCNC(=O)[C@H](Cc1cc(I)c(Oc2cc(I)c(O)c(I)c2)c(I)c1)NC(C)=O` [L-T4/L, N-Acetyl-L-T4-monoethylamide], the “% of T4 derivative bound to antibody” value in series [3] (Thiomersal absent) turned out to be 21%. Also, in series [3] (Thiomersal present), the “% of T4 derivative bound to antibody” value is 60%. For the same compound, at TBG [4], the “Ratio (% bound to antibody, thiomersal absent / present)” value is 0.35; the “binding to TBG (in words)” value is recorded as “bound to TBG to about the same extent as D-T4”; the “suitability of TBG binding reduction for free-T4 assay (in words)” value is “not reduced enough for consideration as a T4 derivative for a free-T4 assay”.
Consider `CC(=O)N[C@@H](Cc1cc(I)c(Oc2cc(I)c(O)c(I)c2)c(I)c1)C(=O)N(C)C` [L-T4/M, N-Acetyl-L-T4-dimethylamide], for which the “% of T4 derivative bound to antibody” value in series [3] (Thiomersal absent) was 50%. In addition, in series [3] (Thiomersal present), the “% of T4 derivative bound to antibody” value turned out to be 50%. In addition, on TBG [4], the “Ratio (% bound to antibody, thiomersal absent / present)” value was determined as 1.00; the “binding to TBG (in words)” value is listed as “appears to have minimal binding to TBG”; the “suitability of TBG binding reduction for free-T4 assay (in words)” value was “sufficiently reduced binding to TBG for use in the free-T4 assay”.
In the case of `CC(=O)N[C@@H](Cc1cc(I)c(Oc2cc(I)c(O)c(I)c2)c(I)c1)C(=O)N(C)C` [N-acetyl-thyroxine-dimethylamide], the “% Radioactivity in Solid Phase” value in series [7] (Free T4 0 ng/dl, mean of duplicate tubes) was found to be 38%; in series [7] (Free T4 0.18 ng/dl, mean of duplicate tubes) it was 22%; in series [7] (Free T4 0.9 ng/dl, mean of duplicate tubes), 11%; in series [7] (Free T4 3.0 ng/dl, mean of duplicate tubes), 6.0%; in [7] (Free T4 5.7 ng/dl, mean of duplicate tubes), 3.6%; in series [7] (non-pregnant euthyroid control), 7.1%. The “% Radioactivity in Solid Phase” value in series [7] (pregnant euthyroid control) was 6.8%.
Regarding `COC(=O)[C@H](Cc1cc(I)c(Oc2cc(I)c(O)c(I)c2)c(I)c1)NC(C)=O` [N-acetyl-thyroxine-methyl ester], the “% Radioactivity in Solid Phase” value in the series on sheep-anti-T4 serum (Free T4 0.0 ng/dl) amounted to 58%; with sheep-anti-T4 serum (Free T4 0.2 ng/dl) it was 55%; in the series on sheep-anti-T4 serum (Free T4 1.0 ng/dl) it was 47%; with sheep-anti-T4 serum (Free T4 3.0 ng/dl), 34%; in the series on sheep-anti-T4 serum (Free T4 5.8 ng/dl), 22%.
In the case of `C[C@]12CCC(=O)C=C1CC[C@@H]1[C@@H]2[C@@H](O)C[C@@]2(C)[C@H]1CC[C@]2(O)C(=O)CO` [cortisol], the “cortisol in free form in blood plasma” value in the series on transcortin and albumin is given as around 8%.
Turning to `C[C@]12CC[C@@H]3c4ccc(O)cc4CC[C@H]3[C@@H]1CC[C@@H]2O` [oestradiol], the “binding to SHBG (in words)” value in series [1] is “bind strongly”.
Consider `CC(=O)[C@H]1CC[C@H]2[C@@H]3CCC4=CC(=O)CC[C@]4(C)[C@H]3CC[C@]12C` [progesterone], for which the “proportion bound to plasma proteins” value in [2] was above 90%.
